Source: ChEMBL document CHEMBL1149871, “Structure and conformational dynamics of trichothecene mycotoxins” (J Nat Prod, 2008)

Key:
[1] = Toxicity in mouse CD4+ T cells assessed as induction of IL5 at 1000 ng/ml; type: cell-based; settings: t-cell
[2] = Toxicity in mouse CD4+ T cells assessed as induction of IL5 at 500 ng/ml; type: cell-based; settings: t-cell
[3] = test system: Mus musculus; assay: Toxicity in ip dosed mouse relative to roridin A; type: organism-based; settings: in vivo
[4] = test system: K562; assay: Cytotoxicity against human K562 cells by MTT assay; type: functional, cell-based
[5] = Toxicity in mouse CD4+ T cells assessed as induction of IL5 at 100 ng/ml; type: cell-based; settings: t-cell
[6] = Toxicity in ip dosed mouse; type: organism-based; settings: in vivo
[7] = Toxicity in mouse CD4+ T cells assessed as induction of IL5 at 1.0 ng/ml; type: cell-based; settings: t-cell
[8] = Toxicity in mouse CD4+ T cells assessed as induction of IL5 at 0.05 ng/ml; type: cell-based; settings: t-cell

## CC(=O)O[C@@H]1C[C@]2(C)[C@@]3(CO)[C@H](O)C(=O)C(C)=C[C@H]3O[C@H]1[C@@]21CO1 [3-ACETYLDEOXYNIVALENOL]
[1]
  Activity: Toxic

## CC(=O)OC[C@]12[C@H](O)C(=O)C(C)=C[C@H]1O[C@@H]1[C@H](O)C[C@@]2(C)[C@]12CO2 [15-ACETYLDEOXYNIVALENOL]
[2]
  Activity: Toxic

## CC(=O)OC[C@]12CCC(C)=C[C@H]1O[C@@H]1[C@H](O)[C@@H](OC(C)=O)[C@@]2(C)[C@]12CO2 [ANGUIDIN]
[3]
  Activity: 23
[4]
  EC50: 2.7 nM

## CC1=C[C@H]2O[C@@H]3[C@H](O)C[C@](C)([C@@]2(CO)[C@H](O)C1=O)[C@]31CO1 [DEOXYNIVALENOL]
[5]
  Activity: Toxic
[3]
  Activity: 4
[4]
  EC50: 1010 nM
[6]
  LD50: 70 mg/kg

## CC(=O)OC[C@]12C[C@H](OC(=O)CC(C)C)C(C)=C[C@H]1O[C@@H]1[C@H](O)[C@@H](O)[C@@]2(C)[C@]12CO2 [HT-2 TOXIN]
[3]
  Activity: 9
[4]
  EC50: 47.1 nM

## CC(=O)OC[C@]12C[C@H](O)C(C)=C[C@H]1O[C@@H]1[C@H](O)[C@@H](OC(C)=O)[C@@]2(C)[C@]12CO2 [NEOSOLANIOL]
[3]
  Activity: 0.5
[4]
  EC50: 392 nM

## CC1=C[C@H]2O[C@@H]3[C@H](O)[C@@H](O)[C@](C)([C@@]2(CO)[C@H](O)C1=O)[C@]31CO1 [NIVALENOL]
[5]
  Activity: Toxic
[4]
  EC50: 960 nM
[6]
  LD50: 4.1 mg/kg

## CC1=C[C@H]2O[C@@H]3C[C@@H]4OC(=O)/C=C/C=C/COCC/C([C@@H](O)[C@H](C)O)=C/C(=O)OC[C@@]2(CC1)[C@]4(C)[C@]31CO1 [SATRATOXIN H]
[3]
  Activity: 1

## CC(=O)OC[C@]12C[C@H](OC(=O)CC(C)C)C(C)=C[C@H]1O[C@@H]1[C@H](O)[C@@H](OC(C)=O)[C@@]2(C)[C@]12CO2 [T-2 TOXIN]
[3]
  Activity: 3
[4]
  EC50: 2.1 nM
[7]
  Activity: Toxic

## CC1=C[C@H]2O[C@@H]3C[C@H]4OC(=O)/C=C\C=C\C(=O)OCC[C@@H](C)[C@H](O)C(=O)OC[C@@]2(CC1)[C@]4(C)[C@]31CO1 [VERRUCARIN A]
[3]
  Activity: 1.5
[8]
  Activity: Toxic
